One assay has as its system ALR-2. Also on record: method as in earlier work. The conditions noted are these: read-out: ALR2 IC50; cited from earlier work.
A further assay relates to db/db mouse. Also on record: method as in PMID 16644902. The following applies: treated for 5 weeks; cited from earlier work.
Assay [1] deals with T1, fructose-1,6-bisphosphatase (FBPase) (Rattus norvegicus, UniProt P19112).
T1 construct: Enzymatic activity started by adding rat liver cytosolic supernatant diluted 9:1; from tissue; host or cells: rat liver cytosolic supernatant
T1 sequence (P19112 2-363 limits assumed): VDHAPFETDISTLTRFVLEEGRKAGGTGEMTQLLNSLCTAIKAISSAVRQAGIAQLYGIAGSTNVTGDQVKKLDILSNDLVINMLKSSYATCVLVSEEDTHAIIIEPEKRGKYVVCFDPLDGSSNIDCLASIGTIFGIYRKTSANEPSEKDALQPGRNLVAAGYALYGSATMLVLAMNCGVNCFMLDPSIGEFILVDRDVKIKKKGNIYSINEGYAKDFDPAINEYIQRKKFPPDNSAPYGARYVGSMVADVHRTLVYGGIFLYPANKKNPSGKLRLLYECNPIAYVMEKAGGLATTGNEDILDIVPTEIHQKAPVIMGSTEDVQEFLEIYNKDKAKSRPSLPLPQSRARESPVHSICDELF
Kind of assay: Inhibition assay of fructose-1,6-bisphosphatase (FBPase). Type of assay: biochemical. The conditions noted are these: rat liver cytosolic supernatant; for IC50: mean ± SEM of two assays in duplicate. As for the experimental part: Buffer (5 μM EDTA, 5 mM MgCl2, 50 mM Tris-HCl, pH 7.2) enriched with 0.1 mM of fructose-1,6-bisphosphate was added and incubated for 5 min with different concentrations of inhibitor or samples (adenosine 5′-monophosphate or compounds) in reaction mixtures of 1 mL. Enzymatic activity started by adding rat liver cytosolic supernatant diluted 9:1 and, 15 min later, ended with the addition of a color reagent previously prepared by mixing 1 volume of 7.5% ammonium molybdate and 0.17% TWEEN 20 with 4 volumes of stock solution (0.12% malachite green in 5 volumes of water with 1 volume of H2SO4). Finally, the reaction mixtures were incubated for 10 min at room temperature and measured at 630 nm.

A further assay addresses α-amylase. Also on record: method as in PMID 24825096. The conditions noted are these: cited from earlier work.
For assay [2], the target named is T2, glucose-6-phosphatase (G6Pase) (Rattus norvegicus, UniProt P43428).
T2 sequence (P43428 1-357): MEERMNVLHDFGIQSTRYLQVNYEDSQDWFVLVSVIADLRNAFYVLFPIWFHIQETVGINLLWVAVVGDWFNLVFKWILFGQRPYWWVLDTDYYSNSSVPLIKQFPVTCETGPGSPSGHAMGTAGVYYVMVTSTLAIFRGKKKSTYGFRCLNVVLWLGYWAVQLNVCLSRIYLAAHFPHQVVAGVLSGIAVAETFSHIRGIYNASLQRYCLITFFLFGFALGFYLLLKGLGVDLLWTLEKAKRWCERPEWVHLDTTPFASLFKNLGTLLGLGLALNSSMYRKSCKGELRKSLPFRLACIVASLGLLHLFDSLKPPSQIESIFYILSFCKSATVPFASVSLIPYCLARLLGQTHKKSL
Kind of assay: Inhibition assay of glucose-6-phosphatase (G6Pase). It is filed as biochemical. The following applies: rat liver microsomal fractions. As to the method: Rat liver microsomal fractions isolated through differential centrifugation were diluted 1:1 in buffer (40 mM imidazole, 250 mM sucrose, pH 7) and added to reaction mixtures, containing buffer and different concentrations of inhibitor samples (chlorogenic acid or compounds). Enzymatic activity started by adding 20 mM of glucose-6-phosphate (G6P). Next, the mixtures were incubated at 22 °C for 20 min and ended with the addition of 900 μL of a solution of 0.42% ammonium molybdate in 1 N H2SO4, 10% SDS, and 10% ascorbic acid. Finally, they were incubated at 45 °C for 20 min and measured at 830 nm.

A further assay has as its target α-glucosidase. Also on record: method as in PMID 24825096. The following applies: cited from earlier work.
A further assay has as its system ALR-1. Also on record: method as in earlier work. The following applies: read-out: ALR1 IC50; cited from earlier work.
For assay [3], the system named is STZ-induced diabetic rats. Also on record: method as in PMID 20506690. The following applies: oral administration for 45 days, 100 mg/kg bw; cited from earlier work.
In assay [4] the test system is high-fat diet model-STZ-induced rats. Also on record: method as in doi:10.1016/j.bionut.2014.03.006. The following applies: consumption for 30 days; cited from earlier work.
The subject of assay [5] is STZ-induced diabetic rats. Also on record: method as in PMID 21433280. The conditions noted are these: 4 days of ad libitum consumption; cited from earlier work.

The term IC50 denotes the concentration at which inhibition is half-maximal. As to `O=C1NC(=O)[C@@]2(CCOc3ccc(F)cc32)N1` [sorbinil], the half-maximal inhibitory concentration (IC50) with ALR-2 is 3.14 ± 0.02 µM.

Take `O=C(O)/C=C/c1ccc(O)c(O)c1` [Caffeic acid (4), caffeic acid]: in the assay with db/db mouse, the blood insulin levels result is reported as “blood insulin levels increased” and the plasma glucose levels entry is listed as “plasma glucose levels decreased”. For the same molecule, the “inhibition over FBPase (in words)” value in assay [1] was “no inhibition”. Besides, on α-amylase, the “α-amylase IC50” value was 3.68 µg/mL. Also, the “inhibition over G6Pase (in words)” value in assay [2] is reported as “modest inhibition”. Also, at α-glucosidase, the “α-glucosidase IC50” value was 4.98 µg/mL.

For `CCCC(CCC)C(=O)O` [valproic acid], the 50% inhibitory concentration (IC50) in the assay on ALR-1 is 57.4 ± 0.89 µM.

Turning to `O=C(O)c1ccc(O)c(O)c1` [protocatechuic acid (3), protocatechuic acid], in [3], the plasma glucose entry is “decrease in plasma glucose” and the plasma insulin result is on record as “increase in plasma insulin”.

For the molecule `O=C(/C=C/c1ccc(O)cc1)OC[C@H]1O[C@@H](Oc2c(-c3ccc(O)cc3)oc3cc(O)cc(O)c3c2=O)[C@H](OC(=O)/C=C/c2ccc(O)cc2)[C@@H](O)[C@@H]1O` [kaempferol-3-O-(2,6-di-O-trans-ρ-coumaryl)-β-D-glucopyranoside], in assay [1], the “inhibition over FBPase (in words)” value was “important inhibition” and 70.9 µM corresponded to half-maximal inhibition (IC50). In addition, the “inhibition over G6Pase (in words)” value in [2] is recorded as “important inhibition”.

Consider `O=C(/C=C/c1ccc(O)c(O)c1)O[C@H](Cc1ccc(O)c(O)c1)C(=O)O` [rosmarinic acid (2), rosmarinic acid], for which, in assay [4], the blood glucose levels result is reported as “decrease in blood glucose levels” and the plasma insulin entry is given as “increase in plasma insulin”. Moreover, in assay [5], the blood glucose levels entry is reported as “blood glucose levels were decreased”.

`Nc1ncnc2c1ncn2[C@@H]1O[C@H](COP(=O)(O)O)[C@@H](O)[C@H]1O` [Adenosine 5′-monophosphate, reference compound] showed a concentration for half-maximal inhibition (IC50) in [1] of 48.7 µM.
